Values after ≈ are worked out from the molar mass of the structure shown. Like-named read-outs stand apart in the source and are kept apart here.
Experiments:
[1] = broilers, cited from earlier work
mice = settings: oral acute toxicity; ref Fan et al., 2022; Hu et al.; Zhang et al., 2015; Zuo et al., 2020; cited from earlier work
M. pneumoniae = test system: M. pneumoniae; set-up: method as in Eraikhuemen et al., 2021; settings: against M. pneumoniae; ref Eraikhuemen et al., 2021; cited from earlier work
[2] = set-up: method as in Wang Y. et al., 2024; Zuo et al., 2020; settings: chickens, ref Wang Y. et al., 2024, Zuo et al., 2020, cited from earlier work
[3] = 2020, cited from earlier work; for AUC0-∞: ref Zuo et al.; for bioavailability: mice, ref Wang Y. et al., 2024, Zuo et al.
[4] = test system: Mycoplasma pneumoniae strain M129 (ATCC 29342); assay: Susceptibility assay (broth microdilution MIC, MBC); assay type: cell-based
Protocol: (§1) Mycoplasma pneumoniae strain M129 (ATCC 29342) was obtained from American Type Culture Collection (Manassas, VA, United States) and cultured at 37°C in the presence of 5% CO2 in the modified SP-4 liquid medium (pH 7.4) containing 2.1% (w/v) CM1166 mycoplasma broth base medium (Oxoid, Hants, United Kingdom), 20% (v/v) fetal bovine serum (FBS, Bioexplorer, CO, United States), 0.4% yeast extract (Oxoid), 0.55% (w/v) CMRL 1066 w/L-glutamine culture media powder (MyBioSource, San Diego, CA, United States), 1% D-glucose (Macklin) and 0.004% phenol red (Macklin). […] The solid medium is based on the above formula with the addition of 1% agar, and the characteristic fried egg-like colonies were used for experiments following incubation for 7 d on plates.
The broth microdilution MIC procedure was performed according to standardized methods for microdilution susceptibility testing of mycoplasma species ([Waites et al., 2012]). […] The concentration of organisms should be determined to approximately 10^6 CFU/mL prior to inoculation into 96-well plates. Due to the action of phenol red, the acidic metabolites of microbial growth can turn the medium yellow. […] The MBC assays were performed based on MICs following endpoint reading and the liquid in the high-concentration wells was removed for bacterial counting.

[5] = test system: Mycoplasma pneumoniae strain M129 (ATCC 29342); assay: Time-kill curves; assay type: cell-based; set-up: M. pneumoniae count in time-kill curve: unit not given here
Protocol: as §1
The tubes were incubated at 37°C in 5% CO2 for 72 h, and 200 µL of the culture was removed every 12 h for 10-fold serial dilutions. The diluted cultures were plated on plates for further culture and counted after 7 d. The experiment was repeated three times.

For `C=C[C@]1(C)C[C@@H](OC(=O)CSc2nnc(N)s2)[C@]2(C)[C@H](C)CC[C@]3(CCC(=O)[C@H]32)[C@@H](C)[C@@H]1O` [ATTM, 14-o-[(2-amino-1,3,4-thiadiazol-5-yl)thioacetyl] mutilin], the bioavailability ([1]; IM, ref Shang et al., 2018, Xianhui, 2010) is given as 75.29%, the bioavailability ([1]; PO, ref Shang et al., 2018, Xianhui, 2010) is given as 72.03% and the LD50 (mice) is given as 2,304.4 mg/kg.

In the case of `C=C[C@]1(C)C[C@@H](OC(=O)CSC(C)(C)CNC(=O)[C@H](N)C(C)C)[C@]2(C)[C@H](C)CC[C@]3(CCC(=O)[C@H]32)[C@@H](C)[C@@H]1O` [valnemulin], the bioavailability ([1]; IM, ref WANG et al., 2011) is given as 88.81%.

In the case of `C=C[C@]1(C)C[C@@H](OC(=O)CS[C@@H]2CC[C@@H](N)C[C@H]2O)[C@]2(C)[C@H](C)CC[C@]3(CCC(=O)[C@H]32)[C@@H](C)[C@@H]1O` [lefamulin], the MIC90 (M. pneumoniae) is given as 0.006 µg/mL (≈ 0.0118 µM).

In the case of `C=C[C@]1(C)C[C@@H](OC(=O)CSc2ccccc2N)[C@]2(C)[C@H](C)CC[C@]3(CCC(=O)[C@H]32)[C@@H](C)[C@@H]1O` [amphenmulin, 22-(2-amino-phenylsulfanyl)-22-deoxypleuromutilin], the bioavailability ([2]; IM) is listed as 52.14%, the bioavailability ([2]; PO) is listed as 5.88% and the LD50 (mice) is listed as > 5,000 mg/kg. For the same compound, the “AUC0-∞” value ([3]; intraperitoneal, at the same dose) was 2520 ng·h/mL, the “AUC0-∞” value ([3]; intravenous, at the same dose as compound 16C) was 12230 ng·h/mL and the bioavailability ([3]; IP) was 20.71%. For the same compound, the bioavailability ([3]; PO) was 13.65% and the “AUC0-∞” value ([3]; oral, at the same dose) was 1670 ng·h/mL.

With `CC[C@H]1OC(=O)[C@H](C)[C@@H](O[C@H]2C[C@@](C)(OC)[C@@H](O)[C@H](C)O2)[C@H](C)[C@@H](O[C@@H]2O[C@H](C)C[C@H](N(C)C)[C@H]2O)[C@](C)(O)C[C@@H](C)C(=O)[C@H](C)[C@@H](O)[C@]1(C)O` [erythromycin] the MIC ([4]; M. pneumoniae strain M129, ≈96 h, read-out: MIC) was 0.016 µg/mL (≈ 0.0218 µM), the MBC ([4]; M. pneumoniae strain M129, read-out: MBC) was 0.032 µg/mL (≈ 0.0436 µM) and the “M. pneumoniae count in time-kill curve” value ([5]; 1×MIC, time 0) was 7.138. The “M. pneumoniae count in time-kill curve” value ([5]; 1×MIC, time 12) was 6.145, the “M. pneumoniae count in time-kill curve” value ([5]; 1×MIC, time 24) was 6.32 and the “M. pneumoniae count in time-kill curve” value ([5]; 1×MIC, time 36) was 5.109. The “M. pneumoniae count in time-kill curve” value ([5]; 1×MIC, time 48) was 4.8395, the “M. pneumoniae count in time-kill curve” value ([5]; 1×MIC, time 60) was 5.816 and the “M. pneumoniae count in time-kill curve” value ([5]; 1×MIC, time 72) was 6.113. For the same compound, the “decrease of bacterial load” value ([5]; 2 × MIC, 72 h exposure) was 3.61 log10 CFU/mL, the “M. pneumoniae count in time-kill curve” value ([5]; 2×MIC, time 0) was 7.138 and the “M. pneumoniae count in time-kill curve” value ([5]; 2×MIC, time 12) was 6.411. The “M. pneumoniae count in time-kill curve” value ([5]; 2×MIC, time 24) was 6.275, the “M. pneumoniae count in time-kill curve” value ([5]; 2×MIC, time 36) was 4.753 and the “M. pneumoniae count in time-kill curve” value ([5]; 2×MIC, time 48) was 4.288. The “M. pneumoniae count in time-kill curve” value ([5]; 2×MIC, time 60) was 4.145, the “M. pneumoniae count in time-kill curve” value ([5]; 2×MIC, time 72) was 3.53 and the “M. pneumoniae count in time-kill curve” value ([5]; 4×MIC, time 0) was 7.138. For the same compound, the “M. pneumoniae count in time-kill curve” value ([5]; 4×MIC, time 12) was 6.078, the “M. pneumoniae count in time-kill curve” value ([5]; 4×MIC, time 24) was 6.148 and the “M. pneumoniae count in time-kill curve” value ([5]; 4×MIC, time 36) was 4.203. For the same compound, the “M. pneumoniae count in time-kill curve” value ([5]; 4×MIC, time 48) was 3.916, the “M. pneumoniae count in time-kill curve” value ([5]; 4×MIC, time 60) was 3.913 and the “M. pneumoniae count in time-kill curve” value ([5]; 4×MIC, time 72) was 3.415. For the same compound, the “M. pneumoniae count in time-kill curve” value ([5]; 8×MIC, time 0) was 7.138, the “M. pneumoniae count in time-kill curve” value ([5]; 8×MIC, time 12) was 6.379 and the “M. pneumoniae count in time-kill curve” value ([5]; 8×MIC, time 24) was 6.145. For the same compound, the “M. pneumoniae count in time-kill curve” value ([5]; 8×MIC, time 36) was 4.163, the “M. pneumoniae count in time-kill curve” value ([5]; 8×MIC, time 48) was 3.977 and the “M. pneumoniae count in time-kill curve” value ([5]; 8×MIC, time 60) was 3.326. For the same compound, the “M. pneumoniae count in time-kill curve” value ([5]; 8×MIC, time 72) was 3.283, the “M. pneumoniae count in time-kill curve” value ([5]; 16×MIC, time 0) was 7.138 and the “M. pneumoniae count in time-kill curve” value ([5]; 16×MIC, time 12) was 6.732. For the same compound, the “M. pneumoniae count in time-kill curve” value ([5]; 16×MIC, time 24) was 6.1338, the “M. pneumoniae count in time-kill curve” value ([5]; 16×MIC, time 36) was 3.93 and the “M. pneumoniae count in time-kill curve” value ([5]; 16×MIC, time 48) was 3.332. For the same compound, the “M. pneumoniae count in time-kill curve” value ([5]; 16×MIC, time 60) was 3.123, the “M. pneumoniae count in time-kill curve” value ([5]; 16×MIC, time 72) was 3.438 and the “M. pneumoniae count in time-kill curve” value ([5]; 32×MIC, time 0) was 7.138. The “M. pneumoniae count in time-kill curve” value ([5]; 32×MIC, time 12) was 6.133, the “M. pneumoniae count in time-kill curve” value ([5]; 32×MIC, time 24) was 5.307 and the “M. pneumoniae count in time-kill curve” value ([5]; 32×MIC, time 36) was 3.588. The “M. pneumoniae count in time-kill curve” value ([5]; 32×MIC, time 48) was 3.619, the “M. pneumoniae count in time-kill curve” value ([5]; 32×MIC, time 60) was 3.2228 and the “M. pneumoniae count in time-kill curve” value ([5]; 32×MIC, time 72) was 3.181. The “M. pneumoniae count in time-kill curve” value ([5]; 64×MIC, time 0) was 7.138, the “M. pneumoniae count in time-kill curve” value ([5]; 64×MIC, time 12) was 6.741 and the “M. pneumoniae count in time-kill curve” value ([5]; 64×MIC, time 24) was 5.886. The “M. pneumoniae count in time-kill curve” value ([5]; 64×MIC, time 36) was 3.638, the “M. pneumoniae count in time-kill curve” value ([5]; 64×MIC, time 48) was 3.377 and the “M. pneumoniae count in time-kill curve” value ([5]; 64×MIC, time 60) was 2.841. The “M. pneumoniae count in time-kill curve” value ([5]; 64×MIC, time 72) was 2.68 and the “concentration at which bactericidal effect was achieved” value ([5]; static time-kill, 72 h) was 2 × MIC.

— article PMC11695783 (Frontiers in Pharmacology, 2024)
